Calls of active or inactive are those of the source. The rule behind the calls is not given here.
Tested on: PC-12
Assay: Cytoprotective activity against hydrogen peroxide-induced cell damage in rat PC12 cells assessed as cell viability treated 2 hrs before hydrogen peroxide challenge by MTT assay
Assay type: functional, cell-based

| SMILES | Activity |
| --- | --- |
| COC1O[C@@]2(C)CC(=O)[C@@H]3C[C@]2(O[C@@H]2O[C@H](CO)[C@@H](O)[C@H](O)[C@H]2O)[C@]13CO (some centres undefined) | Active |
| CC1=CC(=O)[C@@H]2C[C@@]1(O[C@@H]1O[C@H](CO)[C@@H](O)[C@H](O)[C@H]1O)OC=C2CO | Active |
| COCC1=CO[C@]2(O[C@@H]3O[C@H](CO)[C@@H](O)[C@H](O)[C@H]3O)C[C@H]1C(=O)C=C2C | Active |
| C=C1C(OC)O[C@]2(O[C@@H]3O[C@H](CO)[C@@H](O)[C@H](O)[C@H]3O)C[C@H]1C(=O)C=C2C (some centres undefined) | Active |
